The source of these data is patent US9908877B2, “Imidazo[1,5-a]pyridinium ion fluorophores, and methods of making and using the same” (Indiana University Research and Technology Corporation, priority 2013, dated 2018).

Common to all, as to format: physicochemical
The nature of series [1]: Fluorescence response to trifluoroacetic acid / DBU in acetonitrile. As to conditions: for emission intensity at 400 nm: 30 μM in acetonitrile + 50 μL trifluoroacetic acid; for emission intensity at 600 nm / emission wavelength: 30 μM in neat acetonitrile; for emission wavelength λem,max: acetonitrile + 50 μL trifluoroacetic acid; for fluorescence emission in neat acetonitrile: acetonitrile without acid. The protocol: A 30 μM solution of Compound 6 in acetonitrile was prepared by adding 99 μL of a stock solution of 3.04 mM Compound 6 in methanol to 10 mL of acetonitrile. An initial fluorescence emission spectrum of the solution was obtained and is illustrated by curve (i) in FIG. 1A.
A series of approximately 13.8 μL aliquots of trifluoroacetic acid (TFA) were then added to the 30 μM solution of Compound 6 until a total concentration of 60.0 mM of TFA was present in the solution. (The total amount of TFA present in the solution corresponded to 2000 equivalents of acid per equivalent of Compound 6.) The fluorescence emission spectrum of the resulting solution was obtained and is illustrated by curve (ii) in FIG. 1A.
A base, i.e., 1,8-diazabicyclo[5.4.0]undec-7-ene (DBU), was then added to the solution to neutralize the acid until a concentration of 90 mM DBU was obtained. The fluorescence emission spectrum of the resulting solution was obtained and is illustrated by curve (iii) in FIG. 1A. The fluorescence emission intensity at λem,max=565 nm increased as the amount of base present in the system increased and the fluorescence emission intensity at λem,max=405 nm decreased as the amount of base present in the system increased, which reflected Compound 6's ratiometric response to the changing base concentration in acetonitrile.
A 30 μM solution of Compound 7 in acetonitrile was prepared by adding 84 μL of a stock solution of 3.58 mM Compound 7 in methanol to 10 mL of acetonitrile. The emission spectrum of the solution was then obtained and is illustrated by curve (i) in FIG. 1B.
A series of approximately 13.8 μL aliquots of TFA were then added to the 30 μM solution of Compound 7 until a total concentration of 60.0 mM TFA was present in the solution (which corresponded to 2000 equivalents of acid per equivalent of Compound 7). The fluorescence emission spectrum of the solution was obtained and is illustrated by curve (ii) in FIG. 1B.
After the 60 mM TFA concentration was achieved, DBU was gradually added to the solution until a total concentration of 90 mM DBU was present in the solution. The fluorescence spectrum of the solution was obtained and is illustrated by curve (iii) in FIG. 1B.
An aliquot of 50 μL of trifluoroacetic acid was then added to the system, and the fluorescence emission spectrum was obtained and is illustrated by the curved line with a peak at 360 nm in FIG. 6A.
Compound 10 was placed in neat acetonitrile and its emission spectrum was monitored as trifluoroacetic acid was added to the acetonitrile in incremental amounts to achieve a solution that included an acid concentration ranging from 0 to 0.2 M. After each acid addition the sample was excited with radiation of a wavelength 340 nm, and its fluorescence emission spectrum was monitored. The results are illustrated in FIG. 7A.
The solution of Compound 10 in acetonitrile was titrated with trifluoroacetic acid (TFA). […] The first stage, which occurred with the addition of the initial aliquots of TFA, was a slight increase intensity at 580 nm, as illustrated in FIG. 7A. As more TFA was added to the system, a second transition occurred in which the emission at 580 nm began to decrease and as the emission at 400 nm began to increase, as illustrated in FIG. 7B. A plot of the emission intensity at 580 nm versus pH and at 400 nm versus pH is illustrated in FIG. 7C.
Compounds 10, 11, and 12 were then each individually added, at a concentration of 30 μM, to acetonitrile and the emission spectrum of each was monitored. The compounds emitted at 600 nm with an intensity of about 7.57×10^5 arbitrary units (a.u.) in neat acetonitrile. […] FIG. 8B illustrates the emission properties of Compound 12.

A short description of series [2]: Fluorescence response to pH in buffered water. As to conditions: for fluorescence emission in water at pH 7.5: water pH 7.5. The protocol: Stock solutions of each compound (having a concentration of from 1-5 mM) were prepared by dissolving the corresponding salts of the compounds in methanol or 1V, N-dimethylformamide, and then diluting the same with acetonitrile or buffered water having a pH of from 2.5 to 7.5 derived from 0.2 M […] and 0.1 M citric acid, to achieve a sample solution having a compound concentration of 30.0 μM.
The emission spectrum for each sample was obtained. The results are illustrated by the plot in FIG. 2A.
The emission spectrum for each sample was obtained. […] The results are illustrated in the plot of FIG. 2B.
The fluorescence emission spectrum of Compound 8 in water having a pH of 2.5 was also obtained and is illustrated by the curved line with a peak at 360 nm in FIG. 5B.
Compounds 10, 11, and 12 were each individually added, at a concentration of 30 μM, to water having a pH=7.5 and the emission spectra of each were obtained. […] As the pH was decreased from 7.5 to 2.5 in 0.5 pH unit increments, fluorescence emission at 600 nm remained relatively nonexistent and the intensity of the fluorescence emission at 400 nm increased in correlation to the decrease in pH. FIG. 8A illustrates the emission properties of Compound 12.

The nature of series [3]: Ultraviolet-visible light spectrum (maximum absorbance wavelength). The protocol: Method for Obtaining an Ultraviolet-Visible Light Spectrum
Ultraviolet-visible (UV-Vis) Light spectra are obtained and recorded on an Agilent 8453 spectrophotometer using ChemStation software (Agilent Technologies, Inc., Santa Clara, Calif.).
(§1) The compounds were analyzed at 298° K according to the Method for Obtaining Ultraviolet-Visible Light Spectrum (30 μM acetonitrile) to obtain the maximum absorbance wavelength (λabs,max), Method for Obtaining Fluorescence Emission Spectrum (30 μM acetonitrile) to obtain the maximum emission wavelength (λem,max) and Method for Determining Quantum Yield (ΦF) (30 μM acetonitrile) at the concentration, in the solvent, and with the counter ion indicated in Table 1. The compounds included hydrogen at each R group that is not otherwise specified.
(§2) Compounds 6, 7, 9, 11-14 and 21 were analyzed according to: the Method for Obtaining Ultraviolet-Visible Light Spectrum to obtain the maximum absorbance wavelength (λabs,max), the Method for Obtaining Fluorescence Emission Spectrum to obtain the maximum emission wavelength (λem,max), and the Method for Determining Quantum Yield (ΦF) in the solvent and with the counter ion indicated in Table 3.

The nature of series [4]: Fluorescence emission spectrum (maximum emission wavelength). The protocol: Method for Obtaining a Fluorescence Emission Spectrum
Fluorescence emission spectra are obtained and recorded on a QM-4-CW Spectrofluorometer using FeliX32 software (Photon Technology International, Inc., Birmingham, N.J.).
as §1, §2

Series [5] can be described thus: Fluorescence quantum yield, integrating sphere. The protocol:
Method for Determining Quantum Yield
Quantum yield is determined using an integrating sphere attached to a QM-4-CW Spectrofluorometer using FeliX32 software (Photon Technology International).
as §1, §2

Series [6] can be described thus: pKa from fluorescence intensity versus pH. Conditions: non-linear regression of fluorescence intensity versus pH, buffered water pH 2.5 to 7.5. The protocol:
Method for Determining pKa
A pKa value is determined by plotting fluorescence intensity (Imax) at emission maxima against pH and fitting the result to the non-linear expression in equation (1) (i.e., eq.(1)). In eq (1), a and b are the molar coefficient of the acid (HA) and base (A^−) form, respectively, and c is the combined overall concentration of the acid and base form. i.e., c=[HA]+[A^−].

In general, pKa refers to the negative logarithm of the acid dissociation constant. Low values mean a stronger acid or weaker base, high ones a weaker acid or stronger base.

In the case of `CCN(CC)c1ccc(-n2cc(-c3cccc4cn(-c5ccc(N(C)C)cc5)c[n+]34)nn2)cc1.[Cl-]` [Compound 10, 5-(1-(4-(diethylamino)phenyl)-1H-1,2,3-triazol-4-yl)-2-(4-(dimethylamino)phenyl)-2H-imidazo[1,5-a]pyridin-4-ium chloride], in series [1], the “emission intensity at 400 nm” value was 1.34×10^6 a.u, the “emission intensity at 600 nm” value is listed as “about 7.57×10^5 arbitrary units (a.u.)”, the emission wavelength is on record as 600 nm and the “emission wavelength λem,max” value stood at 400 nm. In series [1] (acetonitrile, TFA 0 to 0.2 M, excited at 340 nm, emission at 580 nm and 400 nm), the “emission response to stepwise addition of TFA” value was “two stage transitions”. For the same molecule, in series [2], the “fluorescence emission in water at pH 7.5” value is “essentially no fluorescence emission”.

Turning to `CCN(CC)c1ccc(-n2c[n+]3ccccc3c2-c2ccc(OC)cc2)cc1.[Cl-]` [Compound 7, 2-(4-(diethylamino)phenyl)-1-(4-methoxyphenyl)-2H-imidazo[1,5-a]pyridin-4-ium chloride], the “λabs, max Abs” value in series [3] (H2O pH = 2.5, 30 μM) is recorded as 340 nm; in series [3] (H2O pH = 7.5, 30 μM), 340 nm; in series [3] (MeCN + 13.8 uL TFA, 30 μM), 340 nm; in series [3] (MeCN, 30 μM), 340 nm. Besides, the “λem, max Em” value is reported as 450 nm in series [4] (H2O pH = 2.5, 30 μM) and 450 nm in series [4] (MeCN + 13.8 uL TFA, 30 μM). For the same molecule, the “ΦF (quantum yield)” value in series [5] (30 μM in acetonitrile with 60.0 mM TFA) worked out at 42%. Further, in series [5] (30 μM in acetonitrile, no acid, excited at 340 nm), the “quantum yield (ΦF)” value was found to be 0.06%. The “[…]F (quantum yield)” value is 42% in series [5] (H2O pH = 2.5, 30 μM); 0% in series [5] (H2O pH = 7.5, 30 μM); 57% in series [5] (MeCN + 13.8 uL TFA, 30 μM); 0% in series [5] (MeCN, 30 μM). In addition, the pKa in series [6] came out at 4.4. The “increase in cyan fluorescent intensity” value in series [1] (30 μM in acetonitrile after addition of 60.0 mM TFA) is “approximately 700 fold”. Further, the “λem,max (fluorescence emission)” value in series [1] (30 μM in acetonitrile in the presence of trifluoroacetic acid (60.0 mM TFA)) amounted to 450 nm. Further, the “fluorescence emission in neat acetonitrile” value in series [1] was “essentially non-emissive”. In addition, the “fluorescence intensity after base” value in series [1] (acetonitrile, 60 mM TFA then 90 mM DBU) is given as “returned to zero”. Moreover, in series [2] (buffered water, 298 K, pH from 7.5 to 2.5), the “λem,max of the emission that increases as pH decreases” value came to 450 nm. In addition, the “fluorescence emission in water at pH 7.5” value in series [2] is recorded as “essentially non-emissive”.

As for `Cc1ccc(-n2cc(-c3cccc4cn(-c5ccc(N(C)C)cc5)c[n+]34)nn2)cc1.[Cl-]` [Compound 11, 2-(4-(dimethylamino)phenyl)-5-(1-(p-tolyl)-1H-1,2,3-triazol-4-yl)-2H-imidazo[1,5-a]pyridin-4-ium chloride], the “λabs, max Abs” value in series [3] (H2O pH = 2.5, 30 μM) is given as 340 nm; in series [3] (H2O pH = 7.5, 30 μM) it was 340 nm; in series [3] (MeCN + 50 μL TFA, 30 μM) it was 340 nm; in series [3] (MeCN, 30 μM), 400 nm. Further, the “λem, max Em” value was 400 nm in series [4] (H2O pH = 2.5, 30 μM); 405 nm in series [4] (MeCN + 50 μL TFA, 30 μM); 605 nm in series [4] (MeCN, 30 μM). Besides, the “[…]F (quantum yield)” value in series [5] (H2O pH = 2.5, 30 μM) is given as 29%; in series [5] (H2O pH = 7.5, 30 μM), 0%; in series [5] (MeCN + 50 μL TFA, 30 μM) it was 55%; in series [5] (MeCN, 30 μM) it was 35%. Also, the “emission intensity at 400 nm” value in series [1] is listed as 1.34×10^6 a.u. For the same molecule, the “emission intensity at 600 nm” value in series [1] is reported as “about 7.57×10^5 arbitrary units (a.u.)”. Moreover, the emission wavelength in series [1] turned out to be 600 nm. Besides, the “emission wavelength λem,max” value in series [1] worked out at 400 nm. Moreover, the “fluorescence emission in water at pH 7.5” value in series [2] is reported as “essentially no fluorescence emission”.

Regarding `CC(C)c1cc(N(C)C)cc(C(C)C)c1-n1cc2cccc[n+]2c1` [Compound 8, 2-(4-(dimethylamino)-2,6-diisopropylphenyl)-2H-imidazo[1,5-a]pyridin-4-ium tetraphenylborate], in series [1], the “emission wavelength λem,max” value is on record as 360 nm and the “fluorescence emission in neat acetonitrile” value was “fluorescence quenching”. Moreover, the “fluorescence emission in water at pH 7.5” value in series [2] is on record as “fluorescence quenching”. For the same molecule, the “fluorescence λem” value in series [2] (water, pH 2.5) is on record as 360 nm.
